Source: PubChem BioAssay (NCI)
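Cells were grown in 96-well plates and exposed to each compound for 48 hours at five concentrations; endpoints were interpolated linearly between bracketing concentrations, or set to the highest concentration if not reached. GI50 = concentration required for 50% inhibition of growth. TGI marks complete inhibition of growth.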

system: A498 renal; experiment: NCI-60 cell line screen, 48 h

Structure (SMILES) | TGI | GI50
CC(C)(C)C(=O)/C=C/c1ccc(Oc2ccccc2)cc1 | 32.7 µM | –
CC1=C(C(=O)Nc2c(C)cccc2C)C(c2ccccc2Cl)C(C(=O)Nc2c(C)cccc2C)=C(C)N1 | > 100 µM | –
O=C1CSC(Cc2nc3ccccc3[nH]2)=N1 | 10.4 µM | –
COc1ccccc1NC(=O)C1=C(C)NC(C)=C(C(=O)Nc2ccccc2OC)C1c1ccc([N+](=O)[O-])cc1 | > 100 µM | –
CCOC(=O)[C@H](CCCNC(=O)OC(C)(C)C)NCc1ccc(OC)c(OC)c1 | > 100 µM | –
O=C(/C=C/c1c(O)ccc2ccccc12)c1ccc2ccccc2c1 | > 100 µM | –
O=[N+]([O-])c1ccc(-n2nnc(C3=NCCCN3)c2-c2ccc(Cl)cc2)cc1 | > 100 µM | –
COC(=O)C12C3C4C5(C(=O)OC)C(C1C35C(=O)N(C(C)C)C(C)C)C42C(=O)N(C(C)C)C(C)C (stereo not given) | > 50 µM | –
N#CC(C#N)=c1[nH]c2cccc3c2-c2c(cccc2c3=C(C#N)C#N)[nH]1 | > 100 µM | –
COC(=O)/C=C/C1C(C(=O)OC)C2(C(=O)OC)CCC1(C(=O)OC)N2 (stereo not given) | > 100 µM | –
N#CC(/C(=N/NC(=O)C(=O)NN)C(=O)NC12CC3CC(CC(C3)C1)C2)c1ccccc1 (stereo not given) | > 100 µM | –
Cc1cc(C)n(CCNCCn2nc(C)cc2C)n1 | > 100 µM | –
COc1cc2c(cc1OCc1ccccc1)CNCC2 | > 100 µM | –
CCOC(=O)N1CCN(C(=O)c2ccc(C(F)(F)F)nc2Nc2cc(Cl)ccc2C)CC1 | 56.4 µM | 21.1 µM
O=C(CN1CCCCC1)N1CCc2c([nH]c3ccccc23)C1c1cccnc1 (stereo not given) | > 100 µM | –
O=C(O)c1cc(O)c2c(c1)C(C1c3cc(C(=O)O)cc(O)c3C(=O)c3c(OC4OC(CO)C(O)C(O)C4O)cccc31)c1cccc(OC3OC(CO)C(O)C(O)C3O)c1C2=O (stereo not given) | > 100 µM | > 100 µM
COc1ccc(CNc2c3ccccc3nc3ccccc23)cc1OC | 4.8 µM | 1.97 µM

Structure (SMILES) | TGI | GI50
COc1cc2cn3c4ccc(O)cc4[nH]c(=O)c3c2cc1OC | 10.8 µM | 0.02 µM
COc1ccc(/C=c2/sc3n(c2=O)C(c2ccc(OC)c(OC)c2)C2=C(N=3)c3cc(F)ccc3OC2)cc1 (stereo not given) | > 80.9 µM | 45.6 µM
Cc1n(Cc2ccc3ccccc3c2)cc[n+]1Cc1ccc2ccccc2c1 | 4.61 µM | 0.47 µM
O=S(O)CCCCSSCc1ccccc1CSSCCCCS(=O)O | > 100 µM | –
CC(C)(C)N1CC2(CCCCC2)C1=O | > 100 µM | –
Cc1cc(NC(=O)c2ccc(C)c(Nc3nccc(-c4cccnc4)n3)c2)cc(-n2cnc(C)c2)c1 | 7.93 µM | 1.86 µM
Cc1[nH]n(-c2cccc(Cl)c2)c(=O)c1/C=C1\C=Nc2ccc(Br)cc21 | 5.18 µM | 2.08 µM
CC(=O)c1c(CBr)n([O-])c2ccccc2[n+]1=O | 54.8 µM | 23.6 µM
CCCS(=O)(=O)Nc1ccc(Nc2c3ccccc3nc3ccccc23)c(OC)c1 | 6 µM | –
CCN(CC)CC(C)(C)C(=O)/C=C/c1ccc(Cl)c(Cl)c1 | 3.55 µM | 1.63 µM
NC1CCCC[C@H]1N.N[C@@H]1CCCC[C@@H]1N.O=C(P(=O)([O-])[O-])P(=O)([O-])[O-].[Pt+4].[Pt+4] | > 100 µM | > 100 µM
Cc1ccc(Nc2nc(N)c(C(=O)c3ccc(C#N)cc3)s2)cc1 | 23.1 µM | 0.37 µM
CN1CCc2c(Sc3ccc(C(=O)NO)cc3)c3ccccc3n2C1 | 2.44 µM | 0.185 µM
CC(=O)O[C@@H]1C[C@]2(C(C)C)O[C@@]1(C)[C@@H]1CCC(C)=C1[C@@H]2OC(=O)/C=C/c1ccccc1 | 6.59 µM | 2.19 µM
CCN1C(=O)N(CC)C2C1NC(=S)N2/N=C/C=C/c1cccs1 (stereo not given) | 0.539 µM | 0.0855 µM
COc1ccc(C(=O)C(CO)Oc2ccccc2OC)cc1OC (stereo not given) | > 100 µM | –

system: CCRF-CEM leukemia; experiment: NCI-60 cell line screen, 48 h

Structure (SMILES) | TGI | GI50
CC(C)(C)C(=O)/C=C/c1ccc(Oc2ccccc2)cc1 | 40.5 µM | –
CC1=C(C(=O)Nc2c(C)cccc2C)C(c2ccccc2Cl)C(C(=O)Nc2c(C)cccc2C)=C(C)N1 | > 100 µM | –
O=C1CSC(Cc2nc3ccccc3[nH]2)=N1 | > 94 µM | –
COc1ccccc1NC(=O)C1=C(C)NC(C)=C(C(=O)Nc2ccccc2OC)C1c1ccc([N+](=O)[O-])cc1 | > 100 µM | –
CCOC(=O)[C@H](CCCNC(=O)OC(C)(C)C)NCc1ccc(OC)c(OC)c1 | > 100 µM | –
O=C(/C=C/c1c(O)ccc2ccccc12)c1ccc2ccccc2c1 | > 100 µM | –
O=[N+]([O-])c1ccc(-n2nnc(C3=NCCCN3)c2-c2ccc(Cl)cc2)cc1 | > 100 µM | –
COC(=O)C12C3C4C5(C(=O)OC)C(C1C35C(=O)N(C(C)C)C(C)C)C42C(=O)N(C(C)C)C(C)C (stereo not given) | > 50 µM | –
N#CC(C#N)=c1[nH]c2cccc3c2-c2c(cccc2c3=C(C#N)C#N)[nH]1 | > 100 µM | –
COC(=O)/C=C/C1C(C(=O)OC)C2(C(=O)OC)CCC1(C(=O)OC)N2 (stereo not given) | > 100 µM | –
N#CC(/C(=N/NC(=O)C(=O)NN)C(=O)NC12CC3CC(CC(C3)C1)C2)c1ccccc1 (stereo not given) | > 100 µM | –
CC(=O)OCC1OC([S-])C(OC(C)=O)C(OC(C)=O)C1OC(C)=O.CC[PH+](CC)CC.CC[PH+](CC)CC.[Au].[Au] (stereo not given) | 0.277 µM | 0.0748 µM
Cc1cc(C)n(CCNCCn2nc(C)cc2C)n1 | > 100 µM | –
COc1cc2c(cc1OCc1ccccc1)CNCC2 | > 100 µM | –
CCOC(=O)N1CCN(C(=O)c2ccc(C(F)(F)F)nc2Nc2cc(Cl)ccc2C)CC1 | > 100 µM | 18.9 µM
O=C(CN1CCCCC1)N1CCc2c([nH]c3ccccc23)C1c1cccnc1 (stereo not given) | > 100 µM | –
O=C(O)c1cc(O)c2c(c1)C(C1c3cc(C(=O)O)cc(O)c3C(=O)c3c(OC4OC(CO)C(O)C(O)C4O)cccc31)c1cccc(OC3OC(CO)C(O)C(O)C3O)c1C2=O (stereo not given) | > 100 µM | > 100 µM
COc1ccc(CNc2c3ccccc3nc3ccccc23)cc1OC | 19.2 µM | 2.82 µM

Structure (SMILES) | TGI | GI50
CCCCCCCCCc1cc(=O)c2c(O)cccc2o1 | > 100 µM | –
COc1cc2cn3c4ccc(O)cc4[nH]c(=O)c3c2cc1OC | – | 0.0224 µM
COc1ccc(/C=c2/sc3n(c2=O)C(c2ccc(OC)c(OC)c2)C2=C(N=3)c3cc(F)ccc3OC2)cc1 (stereo not given) | > 100 µM | > 55.7 µM
Cc1n(Cc2ccc3ccccc3c2)cc[n+]1Cc1ccc2ccccc2c1 | 7.19 µM | 1.87 µM
O=S(O)CCCCSSCc1ccccc1CSSCCCCS(=O)O | 42.5 µM | –
CC(C)(C)N1CC2(CCCCC2)C1=O | > 100 µM | –
Cc1cc(NC(=O)c2ccc(C)c(Nc3nccc(-c4cccnc4)n3)c2)cc(-n2cnc(C)c2)c1 | > 50 µM | 0.134 µM
Cc1[nH]n(-c2cccc(Cl)c2)c(=O)c1/C=C1\C=Nc2ccc(Br)cc21 | 9.84 µM | 2.95 µM
CC(=O)c1c(CBr)n([O-])c2ccccc2[n+]1=O | 8.12 µM | 2.14 µM
CCCS(=O)(=O)Nc1ccc(Nc2c3ccccc3nc3ccccc23)c(OC)c1 | 0.499 µM | –
CCN(CC)CC(C)(C)C(=O)/C=C/c1ccc(Cl)c(Cl)c1 | 4.22 µM | 1.14 µM
NC1CCCC[C@H]1N.N[C@@H]1CCCC[C@@H]1N.O=C(P(=O)([O-])[O-])P(=O)([O-])[O-].[Pt+4].[Pt+4] | > 100 µM | 14.1 µM
Cc1ccc(Nc2nc(N)c(C(=O)c3ccc(C#N)cc3)s2)cc1 | > 100 µM | 0.398 µM
CN1CCc2c(Sc3ccc(C(=O)NO)cc3)c3ccccc3n2C1 | > 24.9 µM | 1.87 µM
CC(=O)O[C@@H]1C[C@]2(C(C)C)O[C@@]1(C)[C@@H]1CCC(C)=C1[C@@H]2OC(=O)/C=C/c1ccccc1 | > 100 µM | 31.3 µM
O=C(CSc1nnc(-c2ccccc2NC(=O)C(F)(F)F)c(=O)[nH]1)NC(=O)Nc1ccccc1 | > 100 µM | –
CCN1C(=O)N(CC)C2C1NC(=S)N2/N=C/C=C/c1cccs1 (stereo not given) | > 100 µM | 0.396 µM
COc1ccc(C(=O)C(CO)Oc2ccccc2OC)cc1OC (stereo not given) | > 100 µM | –

system: DMS 273 small cell lung; experiment: NCI-60 cell line screen, 48 h

Structure (SMILES) | TGI
CC1=C(C(=O)Nc2c(C)cccc2C)C(c2ccccc2Cl)C(C(=O)Nc2c(C)cccc2C)=C(C)N1 | > 100 µM
O=C1CSC(Cc2nc3ccccc3[nH]2)=N1 | 35.4 µM
COc1ccccc1NC(=O)C1=C(C)NC(C)=C(C(=O)Nc2ccccc2OC)C1c1ccc([N+](=O)[O-])cc1 | > 100 µM
CCOC(=O)[C@H](CCCNC(=O)OC(C)(C)C)NCc1ccc(OC)c(OC)c1 | > 100 µM
O=C(/C=C/c1c(O)ccc2ccccc12)c1ccc2ccccc2c1 | > 100 µM
O=[N+]([O-])c1ccc(-n2nnc(C3=NCCCN3)c2-c2ccc(Cl)cc2)cc1 | > 100 µM
